From patent publication US20240041840A1 (Areteia Therapeutics, Inc., priority 2020, published 2024)
Read-outs that look alike come from different tables or passages of the source.

Experiments:
[1] = tested on: subjects with eosinophilic asthma; conditions: for Post-Bronchodilator FEV1 Reversibility % change, mean / Post-Bronchodilator FEV1 Reversibility % change, median / Post-Bronchodilator FEV1 Reversibility change, mean / Post-Bronchodilator FEV1 Reversibility change, median / Post-Bronchodilator FEV1 Reversibility observed, mean / Post-Bronchodilator FEV1 Reversibility observed, median: Week 12
Procedure: Pulmonary function is measured by performing a spirometry, which measures forced expiratory volume in is (FEV1), the volume of air moved in the first second of exhalation, this is a well-accepted measure of asthma. Forced vital capacity (FVC) is the total volume of air exhaled during the entire forced expiratory volume (FEV) test. The FEV1/FVC ratio is a calculated measure that may provide a more specific measure of bronchoconstriction, independent of processes such as air trapping. Pulmonary function testing can be tested pre-bronchodilator (after waiting a sufficient time so that all bronchodilator medications have cleared) or post-bronchodilator, typically 15-30 minutes after inhaling a short-acting bronchodilator, such as albuterol. Bronchodilator reversibility (BDR) is calculated and assessed by analyzing FEV1 pre- and post-bronchodilator, and calculating the change both as absolute (ml) and percentage change.
Table 10 provides the data for analyzing bronchodilator reversibility, the % improvement in FEV1 pre/post albuterol bronchodilator (same day). The study entry criteria required ≥12% and ≥200 mL at screening. These values are accepted in the diagnosis of asthma.

blood eosinophils = conditions: 150 mg twice daily, after 6 months, open label, 16 subjects with eosinophilic chronic rhinosinusitis with nasal polyps
Source text: The co-primary endpoints were change in AEC and change in total polyp score (TPS) from baseline to Month 6, with additional clinical and histologic endpoints assessed.

## CCCN[C@@H]1CCc2nc(N)sc2C1 [dexpramipexole, (6R)-2-amino-4,5,6,7-tetrahydro-6-(propylamino) benzothiazole]
[1]; 75 mg/day
  Post-Bronchodilator FEV1 Reversibility % change, mean: −58.7%
  Post-Bronchodilator FEV1 Reversibility % change, median: −49.9%
  Post-Bronchodilator FEV1 Reversibility change, mean: -112 mL
  Post-Bronchodilator FEV1 Reversibility change, median: -55.0 mL
  Post-Bronchodilator FEV1 Reversibility observed, mean: 264 mL
  Post-Bronchodilator FEV1 Reversibility observed, median: 235 mL
[1]; 150 mg/day
  Post-Bronchodilator FEV1 Reversibility % change, mean: −39.8%
  Post-Bronchodilator FEV1 Reversibility % change, median: −9.68%
  Post-Bronchodilator FEV1 Reversibility change, mean: -72.3 mL
  Post-Bronchodilator FEV1 Reversibility change, median: 0 mL
  Post-Bronchodilator FEV1 Reversibility observed, mean: 279 mL
  Post-Bronchodilator FEV1 Reversibility observed, median: 235 mL
[1]; 300 mg/day
  Post-Bronchodilator FEV1 Reversibility % change, mean: −19.6%
  Post-Bronchodilator FEV1 Reversibility % change, median: −19.0%
  Post-Bronchodilator FEV1 Reversibility change, mean: -109 mL
  Post-Bronchodilator FEV1 Reversibility change, median: -50.0 mL
  Post-Bronchodilator FEV1 Reversibility observed, mean: 336 mL
  Post-Bronchodilator FEV1 Reversibility observed, median: 290 mL
[1]; Week 12, 3 DEX arms vs. placebo
  Bronchodilator reversibility: preserved
Blood eosinophils
  Lowering of the AEC: 94%
